Where two headings read alike, the source gives them in different places.
Columns and labels:
[1] = system: BT474 and HN5 tumor cell lines; assay: Methylene blue growth inhibition assay (cellular Method A); type: cell-based, Human; details: 3 days, read-out: Activity (Method): growth inhibition IC50 class
Protocol: Human breast (BT474) and head and neck (HN5) were cultured in low glucose DMEM (Life Technologies 12320-032) containing 10% fetal bovine serum (FBS). Human colon tumor cells (Colo205) were cultured in DMEM (Invitrogen, 10564) containing 10% FBS. The SV40 transformed human mammary epithelial cell line HB4a was transfected with either human H-ras cDNA (HB4a r4.2) or the human c-ErbB2 cDNA (HB4a c5.2). The HB4a clones were cultured in RPMI containing 10% FBS, insulin (5 g/mL), hydrocortisone (5 g/mL), supplemented with the selection agent hygromycin B (50 g/mL). All lines were grown in a humidified incubator at 37° C. in 95% air, 5% CO2. Cells were harvested using trypsin/EDTA, counted using a haemocytometer, and plated in 100 microliters of the appropriate media, at the following densities, in a 96-well tissue culture plate (Falcon 3075): BT474 10,000 cells/well, HN5 3,000 cells/well. The next day, compounds were diluted in DMEM containing […] gentamicin, at twice the final required concentration, from 10 mM stock solutions in DMSO. 100 microliters/well of these dilutions were added to the 100 microliters of media currently on the cell plates. Medium containing 0.6% DMSO was added to control wells. Compounds diluted in DMEM were added to all cell lines. The final concentration of DMSO in all wells was 0.3%. Cells were returned to the incubator (37° C., 10% CO2) for 3 days. Medium was then removed by aspiration. Cell biomass was estimated by staining cells with 90 microliters per well methylene blue (Sigma M9140, 0.5% in 1:1 ethanol:water), and incubation at rt for at least 30 minutes. Stain was removed, and the plates rinsed by immersion in deionized water and air-dried. To release stain from the cells 100 microliters of solubilization solution was added (1% N-lauroyl sarcosine, Sodium salt, Sigma L5125, in PBS), and plates were shaken gently for about 30 minutes. Optical density at 620 nm was measured on a microplate reader. Percent inhibition of cell growth was calculated relative to vehicle treated control wells. Concentration of compound that inhibits 50% of control cell growth (IC50) was interpolated using nonlinear regression (Levenberg-Marquardt) and the equation, y=Vmax*(1−(x/(K+x)))+Y2, where “K” was equal to the IC50. Method B: Celltiter Glo® Growth Inhibition Assays

ErbB2 or EGFR = molecular target: T1, ErbB2 or EGFR; assay: ErbB family substrate phosphorylation enzyme assay (HTRF), Method A or Method B; type: biochemical
T1 construct: enzymes purified from a baculovirus expression system; Reagent production was conducted essentially as described in Brignola, P. S., et al, (2002) J. Biol. Chem. 277(2): 1576-1585
Protocol: Compounds of the present invention were tested for EGFR, ErbB-2, and ErbB-4 protein tyrosine kinase inhibitory activity in substrate phosphorylation assays using enzymes purified from a baculovirus expression system. Reagent production was conducted essentially as described in Brignola, P. S., et al, (2002) J. Biol. Chem. 277(2): 1576-1585.
The method measures the ability of the isolated enzyme to catalyse the transfer of the gamma-phosphate from ATP onto the tyrosine residue of a biotinylated synthetic peptide referenced “Peptide C” in Brignola, P. S., et al, (2002) J. Biol. Chem. 277(2):1576-1585. The extent of tyrosine phosphorylation was measured using an anti-phosphotyrosine antibody, and quantified by homogenous time-resolved fluorescence (HTRF).
Reactions were performed in black 384-well polystyrene flat-bottom plates in a final volume of 20 ul. Assays were performed by adding 10 μl of each of the following solutions, substrate Mix and enzyme mix: The Substrate mix contained 100 mM 3-[N-morpholino]propanesulfonic acid (MOPS) (pH 7.5), 2 mM MnCl2, 20 μM ATP, 0.01% Tween-20, 0.1 mg/mL (BSA), 0.8 uM peptide substrate, and 1 mM dithiothreitol. The enzyme mix contained 100 mM MOPS (pH7.5); 0.01% Tween-20; 0.1 mg/mL BSA, and either 0.8 nM EGFR, 10 nM ErbB2, or 1 nM ErbB4
During the course of these studies, two separate methods have been used to measure the potency of compounds. In Method A, the substrate mix was added to the compound plates first, then the reaction was started by adding the enzyme mix. In Method B, the enzyme mix was added to the compound plates and the plates were incubated at 20° C. for 1 hour. The reactions were then started by adding the substrate mix.
After initiating the reaction with either method describe above, the reactions were allowed to proceed for 90 minutes at 20° C. The reactions were then terminated by the addition of 20 μl 100 mM EDTA to each well. 40 μl/well of HTRF detection mix were added to the assay plates. The final concentrations of the detection reagents were: 100 mM HEPES (pH7.5), 0.1 mg/mL BSA, 15 nM streptavidin-labeled allophycocyanin (PerkinElmer), and 1 nM europium-labeled anti-phosphotyrosine antibody (PerkinElmer). Assay plates were left unsealed and were counted in a Wallac Multilabel Counter 1420 (PerkinElmer).
Compounds under analysis were dissolved in Me2SO to 1.0 mM and serially diluted 1 to 3 with Me2SO through twelve dilutions. 1 μl of each concentration was transferred to the corresponding well of an assay plate. This creates a final compound concentration range from 0.00027 to 47.6 μM.
The data for dose responses were plotted as % Inhibition calculated with the data reduction formula 100*(1−(U1−C2)/(C1−C2)) versus concentration of compound where U is the unknown value, C1 is the average control value obtained for 4.76% DMSO, and C2 is the average control value obtained for 0.035 M EDTA. Data were fitted with a curve described by: y=((Vmax*x)/(K+x))+Y^2 where Vmax is the upper asymptote, Y2 is the Y intercept, and K is the IC50. The results for each compound were recorded as pIC50s, calculated as follows: pIC50=−Log 10(K)

[2] = Method A: substrate mix added first, reaction started with enzyme mix

Row | Structure (SMILES) | IC50 ([1]; Homo sapiens, BT-474, 72 h) [nM] | Activity (Method): pIC50 class against ErbB2 or EGFR (ErbB2 or EGFR; [2]) | further results
1 | CC(c1cccc(Nc2nccc(-c3c(-c4cccc(NC(=O)c5c(F)cccc5F)c4)nn4ccccc34)n2)c1)S(C)(=O)=O (single isomer, unassigned) [Example 124, 2,6-Difluoro-N-(3-{3-[2-({3-[1-(methylsulfonyl)ethyl]-phenyl}amino)-4-pyrimidinyl]pyrazolo[1,5-a]pyridin-2-yl}phenyl)benzamide] |  |  | IC50 [1]: < 100 nM
2 | Cn1cccc1C(=O)Nc1cccc(-c2nn3ccccc3c2-c2ccnc(Nc3ccc4c(c3)OCCO4)n2)c1 [Example 3, 1-Methyl-1H-pyrrole-2-carboxylic acid (3-{3-[2-(2,3-dihydro-benzo[1,4]dioxin-6-ylamino)-pyrimidin-4-yl]-pyrazolo[1,5-a]pyridin-2-yl}-phenyl)-amide] | 100 to 1000 | +++ (A) (at least one pIC50 measurement of greater than 7 against either ErbB2 or EGFR) | 
3 | O=C(Nc1cccc(-c2nn3ccccc3c2-c2ccnc(Nc3ccc4c(c3)OCCO4)n2)c1)c1ccccc1Cl [Example 6, 2-Chloro-N-(3-{3-[2-(2,3-dihydro-benzo[1,4]dioxin-6-ylamino)-pyrimidin-4-yl]-pyrazolo[1,5-a]pyridin-2-yl}-phenyl)-benzamide] | < 100 | +++ (A) (at least one pIC50 measurement of greater than 7 against either ErbB2 or EGFR) | 
4 | S=C(Nc1cccc(-c2nn3ccccc3c2-c2ccnc(Nc3ccc4c(c3)OCCO4)n2)c1)c1ccccc1 [Example 7, N-(3-{3-[2-(2,3-Dihydro-benzo[1,4]dioxin-6-ylamino)-pyrimidin-4-yl]-pyrazolo[1,5-a]pyridin-2-yl}-phenyl)-thiobenzamide] | 100 to 1000 | ++ (A) (at least one pIC50 measurement greater than 6 against either ErbB2 or EGFR but no measurement greater than pIC50 of 7) | 
5 | S=C(Nc1cccc(-c2nn3ccccc3c2-c2ccnc(Nc3ccc4c(c3)OCCO4)n2)c1)c1ccccc1Cl [Example 8, 2-Chloro-N-(3-{3-[2-(2,3-dihydro-benzo[1,4]dioxin-6-ylamino)-pyrimidin-4-yl]-pyrazolo[1,5-a]pyridin-2-yl}-phenyl)-thiobenzamide] | 100 to 1000 | ++ (A) (at least one pIC50 measurement greater than 6 against either ErbB2 or EGFR but no measurement greater than pIC50 of 7) | 
6 | COc1cccc(C(=S)Nc2cccc(-c3nn4ccccc4c3-c3ccnc(Nc4ccc5c(c4)OCCO5)n3)c2)c1 [Example 9, N-(3-{3-[2-(2,3-Dihydro-benzo[1,4-]dioxin-6-ylamino)-pyrimidin-4-yl]-pyrazolo[1,5-a]pyridin-2-yl}-phenyl)-3-methoxy-thiobenzamide] | 100 to 1000 | ++ (A) (at least one pIC50 measurement greater than 6 against either ErbB2 or EGFR but no measurement greater than pIC50 of 7) | 
7 | Cn1cccc1C(=S)Nc1cccc(-c2nn3ccccc3c2-c2ccnc(Nc3ccc4c(c3)OCCO4)n2)c1 [Example 10, 1-Methyl-1H-pyrrole-2-carbothioic acid (3-{3-[2-(2,3-dihydro-benzo[1,4]dioxin-6-ylamino)-pyrimidin-4-yl]pyrazolo[1,5-a]pyridin-2-yl}-phenyl)-amide] | 100 to 1000 | ++ (A) (at least one pIC50 measurement greater than 6 against either ErbB2 or EGFR but no measurement greater than pIC50 of 7) | 
8 | O=C(Nc1cccc(-c2nn3ccccc3c2-c2ccnc(Nc3cccc(F)c3)n2)c1)c1ccccc1F [Example 12, 2-Fluoro-N-(3-{3-[2-(3-fluoro-phenylamino)-pyrimidin-4-yl]-pyrazolo[1,5-a]pyridin-2-yl}-phenyl)-benzamide] | < 100 |  | Activity (Method): pIC50 class against ErbB2 or EGFR (ErbB2 or EGFR; Method B: enzyme mix pre-incubated with compound 1 hour at 20° C., started with substrate mix): ++ (B) (at least one pIC50 measurement greater than 6 against either ErbB2 or EGFR but no measurement greater than pIC50 of 7)
9 | O=C(Nc1cccc(-c2nn3ccccc3c2-c2ccnc(Nc3cccc(F)c3)n2)c1)c1ccccn1 [Example 22, Pyridine-2-carboxylic acid (3-{3-[2-(3-fluoro-phenylamino)-pyrimidin-4-yl]-pyrazolo[1,5-a]pyridin-2-yl}-phenyl)-amide] | 100 to 1000 |  | 
10 | O=C(Nc1cccc(-c2nn3ccccc3c2-c2ccnc(Nc3cccc(F)c3)n2)c1)c1ccccn1 [Example 76, N-[3-(3-{2-[(3-fluorophenyl)amino]-4-pyrimidinyl}pyrazolo[1,5-a]pyridin-2-yl)phenyl]-2-pyridinecarboxamide] |  |  | Activity (Method): pIC50 class against ErbB2 or EGFR (ErbB2 or EGFR; method not given): +++ (at least one pIC50 measurement of greater than 7 against either ErbB2 or EGFR)

Now from value to molecule, other results behind:

Row | IC50 ([1]; Homo sapiens, BT-474, 72 h) [nM] | Structure (SMILES) | Activity (Method): pIC50 class against ErbB2 or EGFR (ErbB2 or EGFR; [2]) | further results
11 | < 100 | CC(c1cccc(Nc2nccc(-c3c(-c4cccc(NC(=O)c5c(F)cccc5F)c4)nn4ccccc34)n2)c1)S(C)(=O)=O (single isomer, unassigned) [Example 123, 2,6-Difluoro-N-(3-{3-[2-({3-[1-(methylsulfonyl)ethyl]-phenyl}amino)-4-pyrimidinyl]pyrazolo[1,5-a]pyridin-2-yl}phenyl)benzamide] |  | 
12 | 100 to 1000 | Cc1ccc2c(-c3ccnc(Nc4cccc(F)c4)n3)c(-c3cccc(NC(=O)c4cc(F)ccc4F)c3)nn2c1 [Example 40, 2,5-Difluoro-N-[3-(3-{2-[(3-fluorophenyl)amino]-4-pyrimidinyl}-6-methylpyrazolo[1,5-a]pyridin-2-yl)phenyl]benzamide] |  | 
13 | 100 to 1000 | Cc1nc2ccc(Nc3nccc(-c4c(-c5cccc(NC(=O)c6c(F)cccc6F)c5)nn5ccccc45)n3)cc2nc1C [Example 97, N-[3-(3-{2-[(2,3-Dimethyl-6-quinoxalinyl)amino]-4-pyrimidinyl}pyrazolo[1,5-a]pyridin-2-yl)phenyl]-2,6-difluorobenzamide] |  | 
14 | 100 to 1000 | O=C(Cc1ccccc1)c1ccc(Nc2nccc(-c3c(-c4cccc(NC(=O)c5c(F)cccc5F)c4)nn4ccccc34)n2)cc1 [Example 102, 2,6-Difluoro-N-{3-[3-(2-{[4-(phenylacetyl)phenyl]-amino}-4-pyrimidinyl)pyrazolo[1,5-a]pyridin-2-yl]-phenyl}benzamide] |  | 

From patent US7812022B2 (GlaxoSmithKline LLC, priority 2004, dated 2010)
